# Results as given in PMC11788587, “Validating Low‐Dose Iohexol as a Marker for Glomerular Filtration Rate by In Vitro and In Vivo Studies” (Clinical and Translational Science, 2025).
# Tests used:
# [1] = target: T1, hOAT1 (Homo sapiens, UniProt Q4U2R8); assay: Inhibition of hOAT1-mediated PAH uptake, stably transfected 293 cells; assay type: cell-based; conditions: substrate 10 µM PAH, median (95% CI)
# T1 construct: expressed in transfected cells; host or cells: HEK-293 (293) cells, pEBTetD plasmid, doxycycline-induced
# T1 sequence (Q4U2R8 1-563): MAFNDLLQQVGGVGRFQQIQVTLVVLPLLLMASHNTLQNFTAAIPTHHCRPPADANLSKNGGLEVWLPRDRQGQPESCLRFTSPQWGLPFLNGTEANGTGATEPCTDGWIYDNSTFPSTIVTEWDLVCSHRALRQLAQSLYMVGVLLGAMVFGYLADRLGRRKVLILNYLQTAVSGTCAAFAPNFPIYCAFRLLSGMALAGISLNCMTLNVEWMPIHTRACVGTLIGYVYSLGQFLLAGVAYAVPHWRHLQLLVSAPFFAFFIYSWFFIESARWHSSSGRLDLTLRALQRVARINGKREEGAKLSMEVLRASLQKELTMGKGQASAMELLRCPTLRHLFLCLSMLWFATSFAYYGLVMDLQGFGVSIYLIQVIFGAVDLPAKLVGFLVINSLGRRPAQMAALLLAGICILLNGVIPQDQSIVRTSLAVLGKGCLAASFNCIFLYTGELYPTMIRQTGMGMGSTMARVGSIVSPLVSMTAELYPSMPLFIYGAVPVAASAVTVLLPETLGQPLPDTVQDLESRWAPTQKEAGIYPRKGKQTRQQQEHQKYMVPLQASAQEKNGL
# Description: (§1) We characterized the inhibitory potential of iohexol on major drug transporters recommended by regulatory agencies, which were previously assessed in a clinical transporter phenotyping cocktail study. These transporters include hOAT1, hOAT3, hOCT1, hOCT2, hMATE1, hMATE2K, human organic anion transporter polypeptides (hOATP)1B1, hOATP1B3, and human multidrug resistance protein (hMDR)1. Additionally, we investigated whether iohexol is a substrate for any of the renal transporters among these, including hOAT1/3, hOCT1/2, and hMATE1/2K. Cell‐based uptake assays were used to assess the activities of hOAT1/3, hOCT1/2, hMATE1/2K, and hOATP1B1/1B3. Inside‐out membrane vesicle uptake assays were used to evaluate the activity of hMDR1.
# To determine the maximal inhibitory potential of iohexol, intracellular accumulation of a standard substrate was measured with and without the clinically relevant highest concentrations of iohexol. Control inhibitors were tested in each experiment.
# In all subsequent in vitro studies, control experiments were conducted to validate the results. These included positive controls for substrates and inhibitors, as well as cells either without transporter expression or transfected with an empty vector, and control vesicles. Each condition, including cells or vesicles with the transporter and their respective controls, was analyzed in at least three replicates. For detailed information on materials, methods, and data analysis techniques used, refer to the Supporting Information. […]
# R version 4.2.1 (R Foundation for Statistical Computing, Vienna, Austria) was used for statistical evaluations and data visualization. The data analysis approach for the in vitro study was detailed by Hsin CH et al..^1 In brief, for transport assays, the initial uptake rate was calculated by normalizing the substrate concentration to both the protein concentration and the incubation time for each dish or well. The transporter-mediated uptake rate (net uptake) was determined by performing an element-wise subtraction of uptake rates from different conditions. […]
# [2] = test system: hOAT1, hOAT3, hOCT1, hOCT2, hMATE1, or hMATE2K; assay: Substrate assessments, summary across transporters; assay type: in vitro ADME, human
# Description: as §1, with “Inside‐out membrane vesicle uptake assays were used to evaluate the activity of hMDR1.” left out
# R version 4.2.1 (R Foundation for Statistical Computing, Vienna, Austria) was used for statistical evaluations and data visualization. The data analysis approach for the in vitro study was detailed by Hsin CH et al..^1 In brief, for transport assays, the initial uptake rate was calculated by normalizing the substrate concentration to both the protein concentration and the incubation time for each dish or well. The transporter-mediated uptake rate (net uptake) was determined by performing an element-wise subtraction of uptake rates from different conditions. […] Net uptake rates were determined by subtracting the uptake rate of the control cells or vesicles from that of the transporter-expressing cells or vesicles for each pair. […]
smiles,measurement,setting,value
CC(=O)N(CC(O)CO)c1c(I)c(C(=O)NCC(O)CO)c(I)c(C(=O)NCC(O)CO)c1I (centres unmarked) [iohexol],Inhibitory effect (% reduction of specific activity),[1]; 20 mM iohexol,no notable inhibitory effects
same,inhibition at 1000 µM,"[1]; HEK293, 1 mM iohexol, read-out: Inhibitory effect (% reduction of specific activity)",-0.45%
same,inhibition at 20000 µM,"[1]; HEK293, 20 mM iohexol, read-out: Inhibitory effect (% reduction of specific activity)",3.1%
same,"Increase in iohexol accumulation vs control cells, range of median values across transporters",[2]; 10 μM iohexol for 10 and 30 min,−0.67 to 1.5 pmol/mg protein
same,Substrate of the transporters (conclusion),[2]; in vitro,neither a substrate nor a significant inhibitor
